# Measured values: the supplement of paper PMC10307832
# Columns and labels:
# Assay in all cases: relative viability (nuclei count vs DMSO), 5 days (fraction); higher = more cells survive
# Linsitinib + Navitoclax = compound: C[C@]1(O)C[C@@H](c2nc(-c3ccc4ccc(-c5ccccc5)nc4c3)c3c(N)nccn32)C1 [Linsitinib] + CC1(C)CCC(c2ccc(Cl)cc2)=C(CN2CCN(c3ccc(C(=O)NS(=O)(=O)c4ccc(N[C@H](CCN5CCOCC5)CSc5ccccc5)c(S(=O)(=O)C(F)(F)F)c4)cc3)CC2)C1 [Navitoclax] (partner 0.5 µM)
# Outline: (§1)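 Cells from lung cancer lines were seeded into 1536-well plates and, one day later, dosed by pin tool. Treatments were either a single drug or a fixed dose of an anchor drug with five library-drug doses (not always all listed) in √10 steps. After 5 days, nuclei were stained in a one-step fixation (final 0.05% Triton X-100, 1% formaldehyde, 1 ug/ml Hoechst) and counted on 4× images, and relative viability is the treated-to-vehicle nuclei ratio, as the median of duplicate plates.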
# Linsitinib + Olaparib = compound: C[C@]1(O)C[C@@H](c2nc(-c3ccc4ccc(-c5ccccc5)nc4c3)c3c(N)nccn32)C1 [Linsitinib] + O=C(c1cc(Cc2n[nH]c(=O)c3ccccc23)ccc1F)N1CCN(C(=O)C2CC2)CC1 [Olaparib] (partner 8 µM)
# Outline: as §1
# Linsitinib + Trametinib = compound: C[C@]1(O)C[C@@H](c2nc(-c3ccc4ccc(-c5ccccc5)nc4c3)c3c(N)nccn32)C1 [Linsitinib] + CC(=O)Nc1cccc(-n2c(=O)n(C3CC3)c(=O)c3c(Nc4ccc(I)cc4F)n(C)c(=O)c(C)c32)c1 [Trametinib] (partner 0.02 µM)
# Outline: as §1
# Ispinesib + Decitabine = compound: Cc1ccc(C(=O)N(CCCN)[C@@H](c2nc3cc(Cl)ccc3c(=O)n2Cc2ccccc2)C(C)C)cc1 [Ispinesib] + Nc1ncn([C@H]2C[C@H](O)[C@@H](CO)O2)c(=O)n1 [Decitabine] (partner 2 µM)
# Outline: as §1
Cell Line,relative viability (Linsitinib + Navitoclax; first compound 0.01 µM),relative viability (Linsitinib + Navitoclax; first compound 0.03162 µM),relative viability (Linsitinib + Navitoclax; first compound 0.1 µM),relative viability (Linsitinib + Navitoclax; first compound 0.3162 µM),relative viability (Linsitinib + Navitoclax; first compound 1 µM),relative viability (Linsitinib + Olaparib; first compound 0.01 µM),relative viability (Linsitinib + Olaparib; first compound 0.03162 µM),relative viability (Linsitinib + Olaparib; first compound 0.1 µM),relative viability (Linsitinib + Olaparib; first compound 0.3162 µM),relative viability (Linsitinib + Olaparib; first compound 1 µM),relative viability (Linsitinib + Trametinib; first compound 0.01 µM),relative viability (Linsitinib + Trametinib; first compound 0.03162 µM),relative viability (Linsitinib + Trametinib; first compound 0.1 µM),relative viability (Linsitinib + Trametinib; first compound 0.3162 µM),relative viability (Linsitinib + Trametinib; first compound 1 µM),relative viability (Ispinesib + Decitabine; first compound 0.001 µM),relative viability (Ispinesib + Decitabine; first compound 0.003162 µM),relative viability (Ispinesib + Decitabine; first compound 0.01 µM),relative viability (Ispinesib + Decitabine; first compound 0.03162 µM),relative viability (Ispinesib + Decitabine; first compound 0.1 µM)
IA-LM,0.882,0.785,0.775,0.6,0.531,0.906,0.976,0.871,0.796,0.75,–,–,–,–,–,–,–,–,–,–
CAL-12T,1.2,1.2,1.28,1.05,0.991,0.79,0.899,0.784,0.689,0.713,0.347,0.364,0.292,0.28,0.318,–,–,–,–,–
A549,1.21,1.15,1.1,1.01,0.895,0.344,0.376,0.384,0.244,0.195,–,–,–,–,–,0.149,0.254,0.326,0.315,0.196
Calu-6,0.826,0.688,0.843,0.629,0.572,0.537,0.46,0.542,0.501,0.458,–,–,–,–,–,–,–,–,–,–
NCI-H358,–,–,–,–,–,0.585,0.64,0.602,0.47,0.333,0.15,0.148,0.13,0.118,0.0976,0.187,0.205,0.213,0.109,0.139
NCI-H1648,–,–,–,–,–,0.766,0.941,1.31,0.377,0.399,0.517,0.482,0.53,0.388,0.385,0.532,0.484,0.474,0.614,0.343
